In one experiment the target is AaDOP1 (Aedes aegypti, UniProt H6D5H1). Kind of experiment: CRELuc reporter dose-response in HEK293 cells stably expressing AaDOP1. Format: cell-based.
Experiment [1] concerns the target T1, AaDOP2 (Aedes aegypti, UniProt H6D5H2). As to the kind of experiment: cell-based.
Experiment [2] addresses T1, AaDOP2. As to the kind of experiment: AaDOP2 antagonist screen of the LOPAC1280 library (HEK-CRELuc-Aadop2 cells, luminescence). The format is cell-based. The note with it: for inhibition at 10 µM: read-out: % of the SCH23390 effect (percent inhibition of receptor response relative to the SCH23390 control).
Experiment [3] deals with T1, AaDOP2. As to the kind of experiment: cell-based. This is another data set of the same source.
The mark [4] stands for this setting: HEK293 cells stably expressing CRELuc reporter and AaDOP1, read-out: EC50 values AaDOP1.
Where [5] appears, read: 10 µM compound, 300 nM dopamine, 2 hr, hit = compound effect <20.

Structures can show the parent of a compound that is named as a salt. Where two headings read alike, the source gives them in different places.

AaDOP1, sequence (H6D5H1 entry or part of it): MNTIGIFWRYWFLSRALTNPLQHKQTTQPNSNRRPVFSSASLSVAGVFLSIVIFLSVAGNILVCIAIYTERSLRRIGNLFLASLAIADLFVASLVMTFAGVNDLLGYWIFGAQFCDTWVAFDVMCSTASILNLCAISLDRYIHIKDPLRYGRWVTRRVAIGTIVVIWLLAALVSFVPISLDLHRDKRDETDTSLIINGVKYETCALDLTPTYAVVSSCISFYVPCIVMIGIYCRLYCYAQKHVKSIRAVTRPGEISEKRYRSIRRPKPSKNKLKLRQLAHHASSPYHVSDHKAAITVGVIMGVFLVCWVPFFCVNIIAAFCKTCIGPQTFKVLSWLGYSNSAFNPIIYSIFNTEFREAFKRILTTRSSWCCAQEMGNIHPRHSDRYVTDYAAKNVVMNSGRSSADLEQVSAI
T1 sequence (H6D5H2 1-476): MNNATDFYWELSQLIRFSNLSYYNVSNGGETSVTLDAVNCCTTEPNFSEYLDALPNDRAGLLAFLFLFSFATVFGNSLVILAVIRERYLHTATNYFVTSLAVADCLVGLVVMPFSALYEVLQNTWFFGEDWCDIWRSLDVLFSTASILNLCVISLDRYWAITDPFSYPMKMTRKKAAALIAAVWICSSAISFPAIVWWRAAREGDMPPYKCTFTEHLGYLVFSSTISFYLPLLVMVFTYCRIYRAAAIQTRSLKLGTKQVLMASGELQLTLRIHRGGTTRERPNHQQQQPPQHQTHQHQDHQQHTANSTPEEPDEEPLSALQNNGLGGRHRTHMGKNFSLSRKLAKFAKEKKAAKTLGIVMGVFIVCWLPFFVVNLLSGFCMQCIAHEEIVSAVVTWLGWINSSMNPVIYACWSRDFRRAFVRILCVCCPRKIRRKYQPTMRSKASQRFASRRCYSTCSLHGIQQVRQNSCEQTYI

In general, EC50 refers to the concentration that produces a half-maximal response. As for `Oc1cc2c(cc1O)[C@H]1c3ccccc3CN[C@@H]1CC2` (racemic) [Dihydrexidine, dihydrexidine], the EC50 on AaDOP1 (setting [4]) turned out to be 0.0069 ± 0.0015 µM; at AaDOP2 [1], 0.29 ± 0.054 µM. Turning to `NC[C@H](O)c1ccc(O)c(O)c1` [Compound 106, L(-)-Norepinephrine bitartrate], the results for the EC50 on AaDOP1 and at AaDOP2 [1] were 0.76 ± 0.18 µM and at least 10 µM, respectively. The “Compound effect (percent receptor signaling in presence of test compound, relative lux units relative to the SCH23390 control)” value on AaDOP2 [2] came to 115.

`CNC[C@H](O)c1ccc(O)c(O)c1` [Compound 491, (-)-Epinephrine bitartrate] displayed a concentration for a half-maximal effect (EC50) at AaDOP2 [1] of at least 10 µM. Usually inhibition stands for the percentage by which the read-out fell short of the control. The term IC50 denotes the concentration needed to halve the response being measured. A lower IC50 goes with inhibition by little substance. As to `OCCN1CCN(CC/C=C2/c3ccccc3Sc3ccc(C(F)(F)F)cc32)CC1` [Compound 541, cis-(Z)-Flupenthixol dihydrochloride, reference compound], the inhibition at 10 µM on AaDOP2 [2] worked out at 88%. Further, at AaDOP2 [3], the IC50 was determined as 0.02 ± 0.0054 µM. As to `NCCc1c[nH]cn1` [Compound 596, Histamine dihydrochloride], the EC50 at AaDOP1 (HEK293 cells stably expressing CRELuc reporter and AaDOP1, ≥10 µM considered lacking intrinsic activity, read-out: EC50 values AaDOP1) is at least 10 µM; at AaDOP2 [1] it was at least 10 µM.

With `NCCc1c[nH]c2ccc(O)cc12` [Compound 613, Serotonin hydrochloride], the half-maximal effective concentration (EC50) on AaDOP1 and on AaDOP2 [1] was at least 10 µM in each case. At AaDOP2 [2], the “Compound effect (percent receptor signaling in presence of test compound, relative lux units relative to the SCH23390 control)” value is listed as 110. For the molecule `O=C(Nc1ccc([N+](=O)[O-])cc1Cl)c1cc(Cl)ccc1O` [Compound 847, Niclosamide, reference compound], on AaDOP2 [2], the “Compound effect (percent receptor signaling in presence of test compound, relative lux units relative to the SCH23390 control)” value was 5 and the inhibition at 10 µM worked out at 95%. For the same molecule, the IC50 against AaDOP2 [3] is at least 10 µM.

`Oc1cc(O)cc(/C=C/c2ccc(O)c(O)c2)c1` [Compound 916, Piceatannol, reference compound]: at AaDOP2 [2], the “Compound effect (percent receptor signaling in presence of test compound, relative lux units relative to the SCH23390 control)” value is recorded as 2 and the inhibition at 10 µM was 98%. Also, the IC50 against AaDOP2 [3] is at least 10 µM. Consider `Oc1ccc(/C=C/c2cc(O)cc(O)c2)cc1` [Compound 1048, Resveratrol, reference compound], for which, at AaDOP2 [2], the “Compound effect (percent receptor signaling in presence of test compound, relative lux units relative to the SCH23390 control)” value came out at 11 and the inhibition at 10 µM turned out to be 89%. The molecule further returned an IC50 against AaDOP2 [3] of at least 10 µM. `NCCc1ccc(O)cc1` [Compound 1162, 4-Hydroxyphenethylamine hydrochloride]: the EC50 at AaDOP1 and on AaDOP2 [1] was at least 10 µM throughout. `CN1CCN(C(=O)OC2c3nccnc3C(=O)N2c2ccc(Cl)cn2)CC1` (centres unmarked) [Compound 1279, Zopiclone]: on AaDOP2 [2], the “Compound effect (percent receptor signaling in presence of test compound, relative lux units relative to the SCH23390 control)” value turned out to be 99. For the molecule `CN(C)C/C=C(/c1ccc(Br)cc1)c1cccnc1` [Compound 1280, Zimelidine dihydrochloride], the “Compound effect (percent receptor signaling in presence of test compound, relative lux units relative to the SCH23390 control)” value at AaDOP2 [2] stood at 80. Consider `Oc1cc2c(cc1O)C(c1ccccc1)CNCC2` (centres unmarked) [SKF 38393], for which the EC50 at AaDOP1 (setting [4]) was 0.31 ± 0.046 µM; at AaDOP2 [1] it was at least 10 µM. Turning to (+)-Catechin Hydrate [Compound 230], the “Compound effect (percent receptor signaling in presence of test compound, relative lux units relative to the SCH23390 control)” value on AaDOP2 [2] (setting [5]) is listed as 111%.

Regarding “(-)-Bicuculline methbromide, 1(S), 9(R) [Compound 202]”, the “Compound effect (percent receptor signaling in presence of test compound, relative lux units relative to the SCH23390 control)” value on AaDOP2 [2] amounted to 94. Same read-out and setting: under (-)-Eseroline fumarate [Compound 504] stands 56. In the case of (-)-Perillic acid [Compound 965], on AaDOP2 [2] (setting [5]), the “Compound effect (percent receptor signaling in presence of test compound, relative lux units relative to the SCH23390 control)” value was found to be 87%. Take “(-)-Scopolamine methyl nitrate [Compound 1087]”: the “Compound effect (percent receptor signaling in presence of test compound, relative lux units relative to the SCH23390 control)” value on AaDOP2 [2] is on record as 113.

Turning to “(±)-PD 128,907 hydrochloride [Compound 1024]”, the “Compound effect (percent receptor signaling in presence of test compound, relative lux units relative to the SCH23390 control)” value at AaDOP2 [2] (setting [5]) worked out at 95%. On the same count and under the same terms, under (±)-Pindobind [Compound 1010] stands 65%. With “Adenosine 3',5'-cyclic monophosphate [Compound 105]”, the “Compound effect (percent receptor signaling in presence of test compound, relative lux units relative to the SCH23390 control)” value on AaDOP2 [2] worked out at 100. On to Ceramide [Compound 235], for which the “Compound effect (percent receptor signaling in presence of test compound, relative lux units relative to the SCH23390 control)” value on AaDOP2 [2] (setting [5]) was 87%.

Consider Cortexolone maleate [Compound 1081], for which the “Compound effect (percent receptor signaling in presence of test compound, relative lux units relative to the SCH23390 control)” value at AaDOP2 [2] (setting [5]) is reported as 83%. For “Dequalinium analog, C-14 linker [Compound 368]”, at AaDOP2 [2] (setting [5]), the “Compound effect (percent receptor signaling in presence of test compound, relative lux units relative to the SCH23390 control)” value worked out at 39%.

For the molecule “Histamine, R(-)-alpha-methyl-, dihydrochloride [Compound 622]”, at AaDOP2 [2], the “Compound effect (percent receptor signaling in presence of test compound, relative lux units relative to the SCH23390 control)” value turned out to be 127. As to IMID-4F hydrochloride [Compound 639], on AaDOP2 [2] (setting [5]), the “Compound effect (percent receptor signaling in presence of test compound, relative lux units relative to the SCH23390 control)” value is on record as 109%. In the case of “L-Leucinethiol, oxidized dihydrochloride [Compound 709]”, the “Compound effect (percent receptor signaling in presence of test compound, relative lux units relative to the SCH23390 control)” value at AaDOP2 [2] (setting [5]) was 81%. As to “MDL 26,630 trihydrochloride [Compound 828]”, the “Compound effect (percent receptor signaling in presence of test compound, relative lux units relative to the SCH23390 control)” value at AaDOP2 [2] (setting [5]) was 93%. In the case of MHPG piperazine [Compound 577], the “Compound effect (percent receptor signaling in presence of test compound, relative lux units relative to the SCH23390 control)” value on AaDOP2 [2] came out at 104. Consider NCS-356 [Compound 849], for which, at AaDOP2 [2], the “Compound effect (percent receptor signaling in presence of test compound, relative lux units relative to the SCH23390 control)” value was determined as 99. Still for that read-out and setting: next, NS 521 oxalate [Compound 869]: 75; OXA-22 iodide [Compound 326]: 88.

For the molecule Oligomycin A [Compound 906], on AaDOP2 [2], the “Compound effect (percent receptor signaling in presence of test compound, relative lux units relative to the SCH23390 control)” value is listed as 82.

For “Phenylbenzene-omega-phosphono-alpha-amino acid [Compound 1021]”, the “Compound effect (percent receptor signaling in presence of test compound, relative lux units relative to the SCH23390 control)” value on AaDOP2 [2] turned out to be 95. As for Picrotoxin [Compound 924], the “Compound effect (percent receptor signaling in presence of test compound, relative lux units relative to the SCH23390 control)” value on AaDOP2 [2] is on record as 98. As for Pyrazinecarboxamide [Compound 966], the “Compound effect (percent receptor signaling in presence of test compound, relative lux units relative to the SCH23390 control)” value on AaDOP2 [2] (setting [5]) turned out to be 79%. Take “R(-)-2,10,11-Trihydroxy-N-propylnoraporphine hydrobromide [Compound 438]”: the “Compound effect (percent receptor signaling in presence of test compound, relative lux units relative to the SCH23390 control)” value at AaDOP2 [2] (setting [5]) is listed as 88%. For “R(-)-Apocodeine hydrochloride [Compound 435]”, the “Compound effect (percent receptor signaling in presence of test compound, relative lux units relative to the SCH23390 control)” value at AaDOP2 [2] is given as 98.

On to “R(-)-Isoproterenol (+)-bitartrate [Compound 640]”, for which the “Compound effect (percent receptor signaling in presence of test compound, relative lux units relative to the SCH23390 control)” value at AaDOP2 [2] (setting [5]) is reported as 118%. R(-)-Me5 [Compound 734]: the “Compound effect (percent receptor signaling in presence of test compound, relative lux units relative to the SCH23390 control)” value at AaDOP2 [2] was 93.

Take “R(-)-Propylnorapomorphine hydrochloride [Compound 436]”: the “Compound effect (percent receptor signaling in presence of test compound, relative lux units relative to the SCH23390 control)” value at AaDOP2 [2] turned out to be 99. On the same count and under the same terms, under “R-(-)-Deprenyl hydrochloride [Compound 813]” stands 93.

Consider “R-(-)-Desmethyldeprenyl hydrochloride [Compound 407]”, for which the “Compound effect (percent receptor signaling in presence of test compound, relative lux units relative to the SCH23390 control)” value at AaDOP2 [2] amounted to 90. The same measure, in the same setting: next, S(-)-Timolol maleate [Compound 1191]: 88.

For “S-Nitroso-N-acetylpenicillamine [Compound 846]”, the “Compound effect (percent receptor signaling in presence of test compound, relative lux units relative to the SCH23390 control)” value at AaDOP2 [2] (setting [5]) stood at 88%. On to SB 224289 hydrochloride [Compound 1142], for which the “Compound effect (percent receptor signaling in presence of test compound, relative lux units relative to the SCH23390 control)” value at AaDOP2 [2] is given as 95. On to SKF 83565 hydrobromide [Compound 1096], for which the “Compound effect (percent receptor signaling in presence of test compound, relative lux units relative to the SCH23390 control)” value at AaDOP2 [2] (setting [5]) is listed as 57%. SKF 95282 dimaleate [Compound 1237]: the “Compound effect (percent receptor signaling in presence of test compound, relative lux units relative to the SCH23390 control)” value at AaDOP2 [2] stood at 96. Regarding “Seglitide [Compound 1079, reference compound]”, the “Compound effect (percent receptor signaling in presence of test compound, relative lux units relative to the SCH23390 control)” value on AaDOP2 [2] is recorded as 102. In the case of TFPI hydrochloride [Compound 1197], the “Compound effect (percent receptor signaling in presence of test compound, relative lux units relative to the SCH23390 control)” value on AaDOP2 [2] (setting [5]) stood at 96%. With “VER-3323 hemifumarate salt [Compound 706]”, on AaDOP2 [2], the “Compound effect (percent receptor signaling in presence of test compound, relative lux units relative to the SCH23390 control)” value amounted to 82. The same measure, in the same setting: under WB 64 [Compound 1263] stands 83. Turning to “cis-(±)-8-OH-PBZI hydrobromide [Compound 918]”, the “Compound effect (percent receptor signaling in presence of test compound, relative lux units relative to the SCH23390 control)” value on AaDOP2 [2] (setting [5]) is 88%.

The record behind these values is paper PMC3265452 (PLoS Neglected Tropical Diseases, 2012).
